Experimental data reported in patent US20080114007A1 (priority 2006, published 2008).

target: CSF-1R (Homo sapiens, UniProt P07333); assay: Peptide (non-phosphorylated) assay, fluorescence polarization competition immunoassay; type: biochemical; settings: 0.7 nM CSF-1R, 308 μM SYEGNSYTFIDPTQ peptide, 1 mM ATP, 80 min; mean of at least three determinations; read-out: c-fms Peptide IC50
Method in brief: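 Read-out is fluorescence polarization: after EDTA quench, anti-phosphotyrosine antibody plus PTK green tracer compete with the phosphorylated peptide for 30 min. The CSF-1R reaction itself ran 80 min at room temperature after ATP addition. DMSO (4%) wells served as controls, positive controls pre-treated with EDTA.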

Chain of CSF-1R (P07333 20-972): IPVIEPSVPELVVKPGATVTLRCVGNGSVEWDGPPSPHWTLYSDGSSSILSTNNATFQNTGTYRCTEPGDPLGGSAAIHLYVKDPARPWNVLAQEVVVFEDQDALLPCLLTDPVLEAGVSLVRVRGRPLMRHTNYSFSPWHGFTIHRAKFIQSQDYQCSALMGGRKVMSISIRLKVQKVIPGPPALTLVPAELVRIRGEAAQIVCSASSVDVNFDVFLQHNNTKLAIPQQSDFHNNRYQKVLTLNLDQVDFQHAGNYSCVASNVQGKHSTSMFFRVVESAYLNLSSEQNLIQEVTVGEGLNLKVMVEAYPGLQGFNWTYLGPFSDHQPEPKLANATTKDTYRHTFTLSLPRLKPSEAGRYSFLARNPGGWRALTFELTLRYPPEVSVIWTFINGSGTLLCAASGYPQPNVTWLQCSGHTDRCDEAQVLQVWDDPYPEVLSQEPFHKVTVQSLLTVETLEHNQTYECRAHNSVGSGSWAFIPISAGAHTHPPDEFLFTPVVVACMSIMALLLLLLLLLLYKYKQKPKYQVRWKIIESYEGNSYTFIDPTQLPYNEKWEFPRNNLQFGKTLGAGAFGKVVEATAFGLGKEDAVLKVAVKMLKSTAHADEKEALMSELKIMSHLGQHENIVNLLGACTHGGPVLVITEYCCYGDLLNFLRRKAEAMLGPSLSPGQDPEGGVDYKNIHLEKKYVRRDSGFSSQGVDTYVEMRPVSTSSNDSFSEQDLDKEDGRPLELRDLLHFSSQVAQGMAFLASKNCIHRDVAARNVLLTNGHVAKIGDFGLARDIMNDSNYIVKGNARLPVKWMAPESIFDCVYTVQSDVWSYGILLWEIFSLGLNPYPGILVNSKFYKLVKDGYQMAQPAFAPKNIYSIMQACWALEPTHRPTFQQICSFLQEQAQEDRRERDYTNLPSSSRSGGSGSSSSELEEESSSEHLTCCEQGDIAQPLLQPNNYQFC

Q: For `COCCNC(=O)c1cn(-c2ccc3c(c2)CCC3)c2nc(Nc3ccc(CCN4CCCC4)cc3)ncc2c1=O` [Cpd 132, 8-indan-5-yl-5-oxo-2-[4-(2-pyrrolidin-1-yl-ethyl)-phenylamino]-5,8-dihydro-pyrido[2,3-d]pyrimidine-6-carboxylic acid (2-methoxy-ethyl)-amide], which IC50 is on record?
A: Its IC50 is 12 nM.

Q: For `CC(C)ONC(=O)c1cn(-c2ccc3c(c2)CCC3)c2nc(Nc3ccc(CCN4CCCC4)cc3)ncc2c1=O` [Cpd 133, 8-indan-5-yl-5-oxo-2-[4-(2-pyrrolidin-1-yl-ethyl)-phenylamino]-5,8-dihydro-pyrido[2,3-d]pyrimidine-6-carboxylic acid isopropoxy-amide], which IC50 is on record?
A: The IC50 was 1.2 nM.

Q: Which IC50 does the source give for `CONC(=O)c1cn(-c2ccc3c(c2)CCC3)c2nc(Nc3ccc(CCN4CCCC4=O)cc3)ncc2c1=O` [Cpd 134, 8-indan-5-yl-5-oxo-2-{4-[2-(2-oxo-pyrrolidin-1-yl)-ethyl]-phenylamino}-5,8-dihydro-pyrido[2,3-d]pyrimidine-6-carboxylic acid methoxy-amide] here?
A: The IC50 was 6.8 nM.

Q: Which IC50 does the source give for `CCONC(=O)c1cn(-c2ccc3c(c2)CCC3)c2nc(Nc3ccc(CCN4CCCC4=O)cc3)ncc2c1=O` [Cpd 135, 8-indan-5-yl-5-oxo-2-{4-[2-(2-oxo-pyrrolidin-1-yl)-ethyl]-phenylamino}-5,8-dihydro-pyrido[2,3-d]pyrimidine-6-carboxylic acid ethoxy-amide] here?
A: The IC50 was 66 nM.

Q: `CCONC(=O)c1cn(-c2ccc3c(c2)CCC3)c2nc(Nc3ccc(S(=O)(=O)N(C)C)cc3)ncc2c1=O` [Cpd 136, 2-(4-dimethylsulfamoyl-phenylamino)-8-indan-5-yl-5-oxo-5,8-dihydro-pyrido[2,3-d]pyrimidine-6-carboxylic acid ethoxy-amide] was tested. Which IC50 did it give?
A: The IC50 was 4.2 nM.

Q: How did the IC50 turn out when `CC(C)ONC(=O)c1cn(-c2ccc3c(c2)CCC3)c2nc(Nc3ccc(S(=O)(=O)N(C)C)cc3)ncc2c1=O` [Cpd 137, 2-(4-dimethylsulfamoyl-phenylamino)-8-indan-5-yl-5-oxo-5,8-dihydro-pyrido[2,3-d]pyrimidine-6-carboxylic acid isopropoxy-amide] was run?
A: Its IC50 is 16 nM.

Q: With `CCONC(=O)c1cn(-c2ccc3c(c2)CCC3)c2nc(Nc3ccc(C4CCN(C)CC4)cc3)ncc2c1=O` [Cpd 139, 8-indan-5-yl-2-[4-(1-methyl-piperidin-4-yl)-phenylamino]-5-oxo-5,8-dihydro-pyrido[2,3-d]pyrimidine-6-carboxylic acid ethoxy-amide] as the compound, how does the IC50 read?
A: Its IC50 is 1 nM.

Q: `CONC(=O)c1cn(C2CCCCC2)c2nc(Nc3ccc(C4CCN(C)CC4)cc3)ncc2c1=O` [Cpd 140, 8-cyclohexyl-2-[4-(1-methyl-piperidin-4-yl)-phenylamino]-5-oxo-5,8-dihydro-pyrido[2,3-d]pyrimidine-6-carboxylic acid methoxy-amide] was tested. Which IC50 did it give?
A: The IC50 was 4.8 nM.

Q: For `CCONC(=O)c1cn(C2CCCCC2)c2nc(Nc3ccc(C4CCN(C)CC4)cc3)ncc2c1=O` [Cpd 141, 8-cyclohexyl-2-[4-(1-methyl-piperidin-4-yl)-phenylamino]-5-oxo-5,8-dihydro-pyrido[2,3-d]pyrimidine-6-carboxylic acid ethoxy-amide], which IC50 is on record?
A: Its IC50 is 1.3 nM.

Q: For `CCONC(=O)c1cn(C2CC2)c2nc(Nc3ccc(CCN4CCCC4)cc3)ncc2c1=O` [Cpd 142, 8-cyclopropyl-5-oxo-2-[4-(2-pyrrolidin-1-yl-ethyl)-phenylamino]-5,8-dihydro-pyrido[2,3-d]pyrimidine-6-carboxylic acid ethoxy-amide], which IC50 is on record?
A: Its IC50 is 66 nM.

Q: For `CC(C)ONC(=O)c1cn(C2CC2)c2nc(Nc3ccc(CCN4CCCC4)cc3)ncc2c1=O` [Cpd 143, 8-cyclopropyl-5-oxo-2-[4-(2-pyrrolidin-1-yl-ethyl)-phenylamino]-5,8-dihydro-pyrido[2,3-d]pyrimidine-6-carboxylic acid isopropoxy-amide], which IC50 is on record?
A: Its IC50 is 130 nM.

Q: `CONC(=O)c1cn(-c2ccc3c(c2)CCC3)c2nc(Nc3ccc(CCN4CCNCC4)cc3)ncc2c1=O` [Cpd 144, 8-indan-5-yl-5-oxo-2-[4-(2-piperazin-1-yl-ethyl)-phenylamino]-5,8-dihydro-pyrido[2,3-d]pyrimidine-6-carboxylic acid methoxy-amide] was tested. Which IC50 did it give?
A: Its IC50 is 0.4 nM.

Q: Which IC50 does the source give for `CONC(=O)c1cn(-c2ccc3c(c2)CCC3)c2nc(Nc3ccc(CCN4CCN(C(C)=O)CC4)cc3)ncc2c1=O` [Cpd 145, 2-{4-[2-(4-acetyl-piperazin-1-yl)-ethyl]-phenylamino}-8-indan-5-yl-5-oxo-5,8-dihydro-pyrido[2,3-d]pyrimidine-6-carboxylic acid methoxy-amide] here?
A: The IC50 was 1.2 nM.

Q: For `CONC(=O)c1cn(-c2ccc3c(c2)CCC3)c2nc(Nc3ccc(CCN4CCN(S(C)(=O)=O)CC4)cc3)ncc2c1=O` [Cpd 146, 8-indan-5-yl-2-{4-[2-(4-methanesulfonyl-piperazin-1-yl)-ethyl]-phenylamino}-5-oxo-5,8-dihydro-pyrido[2,3-d]pyrimidine-6-carboxylic acid methoxy-amide], which IC50 is on record?
A: The IC50 was 1.2 nM.

Q: For `CONC(=O)c1cn(-c2ccc3c(c2)CCC3)c2nc(Nc3ccc(CCN4CCN(CC(=O)O)CC4)cc3)ncc2c1=O` [Cpd 147, (4-{2-[4-(8-indan-5-yl-6-methoxycarbamoyl-5-oxo-5,8-dihydro-pyrido[2,3-d]pyrimidin-2-ylamino)-phenyl]-ethyl}-piperazin-1-yl)-acetic acid], which IC50 is on record?
A: The IC50 was 0.94 nM.

Q: Which IC50 does the source give for `CONC(=O)c1cn(-c2ccc3c(c2)CCC3)c2nc(Nc3ccc(CCN4CCN(C(=O)C(F)(F)F)CC4)cc3)ncc2c1=O` [Cpd 148, 8-indan-5-yl-5-oxo-2-(4-{2-[4-(2,2,2-trifluoro-acetyl)-piperazin-1-yl]-ethyl}-phenylamino)-5,8-dihydro-pyrido[2,3-d]pyrimidine-6-carboxylic acid methoxy-amide] here?
A: Its IC50 is 1.2 nM.

Q: Which IC50 does the source give for `CONC(=O)c1cn(-c2ccc3c(c2)CCC3)c2nc(Nc3ccc(CCN4CCN(CC(F)(F)F)CC4)cc3)ncc2c1=O` [Cpd 149, 8-indan-5-yl-5-oxo-2-(4-{2-[4-(2,2,2-trifluoro-ethyl)-piperazin-1-yl]-ethyl}-phenylamino)-5,8-dihydro-pyrido[2,3-d]pyrimidine-6-carboxylic acid methoxy-amide] here?
A: Its IC50 is 2.6 nM.

Q: With `CONC(=O)c1cn(-c2ccc3c(c2)CCC3)c2nc(Nc3ccc(CCN4CCN(C(=O)OC)CC4)cc3)ncc2c1=O` [Cpd 150, 4-{2-[4-(8-indan-5-yl-6-methoxycarbamoyl-5-oxo-5,8-dihydro-pyrido[2,3-d]pyrimidin-2-ylamino)-phenyl]-ethyl}-piperazine-1-carboxylic acid methyl ester] as the compound, how does the IC50 read?
A: Its IC50 is 0.75 nM.

Q: `CONC(=O)c1cn(-c2ccc3c(c2)CCC3)c2nc(Nc3ccc(CCCN4CCN(C)CC4)cc3)ncc2c1=O` [Cpd 151, 8-indan-5-yl-2-{4-[3-(4-methylpiperazin-1-yl)-propyl]-phenylamino}-5-oxo-5,8-dihydro-pyrido[2,3-d]pyrimidine-6-carboxylic acid methoxy-amide] was tested. Which IC50 did it give?
A: Its IC50 is 1.5 nM.

Q: `CONC(=O)c1cn(-c2ccc3c(c2)CCC3)c2nc(Nc3ccc(CC(=O)N4CCN(C)CC4)cc3)ncc2c1=O` [Cpd 152, 8-indan-5-yl-2-{4-[2-(4-methylpiperazin-1-yl)-2-oxo-ethyl]-phenylamino}-5-oxo-5,8-dihydro-pyrido[2,3-d]pyrimidine-6-carboxylic acid methoxy-amide] was tested. Which IC50 did it give?
A: The IC50 was 1.5 nM.

Q: How did the IC50 turn out when `CONC(=O)c1cn(-c2ccc3c(c2)CCC3)c2nc(Nc3ccc(CCC(=O)NS(C)(=O)=O)cc3)ncc2c1=O` [Cpd 153, 8-indan-5-yl-2-[4-(3-methanesulfonylamino-3-oxo-propyl)-phenylamino]-5-oxo-5,8-dihydro-pyrido[2,3-d]pyrimidine-6-carboxylic acid methoxy-amide] was run?
A: Its IC50 is 3.2 nM.

Q: `CONC(=O)c1cn(-c2ccc3c(c2)CCC3)c2nc(Nc3ccc(S(=O)(=O)N4CCN(C)CC4)cc3)ncc2c1=O` [Cpd 154, 8-indan-5-yl-2-[4-(4-methyl-piperazine-1-sulfonyl)-phenylamino]-5-oxo-5,8-dihydro-pyrido[2,3-d]pyrimidine-6-carboxylic acid methoxy-amide] was tested. Which IC50 did it give?
A: Its IC50 is 7.3 nM.

Q: `CCN1CCC(c2ccc(Nc3ncc4c(=O)c(C(=O)NOC)cn(-c5ccc6c(c5)CCC6)c4n3)cc2)CC1` [Cpd 155, 2-[4-(1-ethyl-piperidin-4-yl)-phenylamino]-8-indan-5-yl-5-oxo-5,8-dihydro-pyrido[2,3-d]pyrimidine-6-carboxylic acid methoxy-amide] was tested. Which IC50 did it give?
A: The IC50 was 0.12 nM.

Q: How did the IC50 turn out when `CCc1ccc(-n2cc(C(=O)NOC)c(=O)c3cnc(Nc4ccc(C5CCN(CC)CC5)cc4)nc32)cc1` [Cpd 157, 8-(4-ethyl-phenyl)-2-[4-(1-ethyl-piperidin-4-yl)-phenylamino]-5-oxo-5,8-dihydro-pyrido[2,3-d]pyrimidine-6-carboxylic acid methoxy-amide] was run?
A: The IC50 was 0.4 nM.

Q: For `CONC(=O)c1cn(-c2ccc(OC(F)(F)F)cc2)c2nc(Nc3ccc(C4CCN(C)CC4)cc3)ncc2c1=O` [Cpd 159, 2-[4-(1-methylpiperidin-4-yl)-phenylamino]-5-oxo-8-(4-trifluoromethoxyphenyl)-5,8-dihydropyrido[2,3-d]pyrimidine-6-carboxylic acid methoxy-amide], which IC50 is on record?
A: Its IC50 is 0.66 nM.

Q: How did the IC50 turn out when `CONC(=O)c1cn(-c2ccc(OC(F)(F)F)cc2)c2nc(Nc3ccc(C4CCN(CCO)CC4)cc3)ncc2c1=O` [Cpd 162, 2-{4-[1-(2-hydroxyethyl)-piperidin-4-yl]-phenylamino}-5-oxo-8-(4-trifluoromethoxy-phenyl)-5,8-dihydropyrido[2,3-d]pyrimidine-6-carboxylic acid methoxy-amide] was run?
A: Its IC50 is 2.1 nM.

Q: How did the IC50 turn out when `CONC(=O)c1cn(-c2ccc3c(c2)CCC3)c2nc(Nc3ccc(CCn4ccnc4)cc3)ncc2c1=O` [Cpd 171, 2-[4-(2-imidazol-1-yl-ethyl)-phenylamino]-8-indan-5-yl-5-oxo-5,8-dihydro-pyrido[2,3-d]pyrimidine-6-carboxylic acid methoxy-amide] was run?
A: The IC50 was 0.76 nM.

same assay, conditions: c-fms Peptide IC50, 0.7 nM CSF-1R, 308 μM SYEGNSYTFIDPTQ peptide, 1 mM ATP, 80 min; mean of at least three determinations

Q: For `CCc1ccc(-n2cc(C(=O)NOC)c(=O)c3cnc(Nc4ccc(C5CCN(C)CC5)cc4)nc32)cc1` [Cpd 156, 8-(4-ethyl-phenyl)-2-[4-(1-methyl-piperidin-4-yl)-phenylamino]-5-oxo-5,8-dihydro-pyrido[2,3-d]pyrimidine-6-carboxylic acid methoxy-amide], which IC50 is on record?
A: Its IC50 is 0.3 nM.
